Measurements: the NIST ThermoML archive (doi:10.1021/je900387e)

Assay: xn = mol fraction of the nth substance listed
Conditions: Liquid, Pycnometric method

Cn1ccnc1 [1-methylimidazole] + O=C=O
Conditions | mass density [kg/m3]
313.1 K, 11200 kPa, x1 = 0.0247 | 802
313.1 K, 11280 kPa, x1 = 0.0487 | 852
313.1 K, 11440 kPa, x1 = 0.0487 | 855
313.1 K, 11540 kPa, x1 = 0.0102 | 771
313.1 K, 11540 kPa, x1 = 0.1024 | 928
313.1 K, 11580 kPa, x1 = 0.0247 | 811
313.1 K, 11620 kPa, x1 = 0.0487 | 858
313.1 K, 11740 kPa, x1 = 0.1024 | 930
313.1 K, 11790 kPa, x1 = 0.0487 | 860
313.1 K, 11980 kPa, x1 = 0.0487 | 862
313.1 K, 11990 kPa, x1 = 0.1024 | 933
313.1 K, 12000 kPa, x1 = 0.0247 | 819
313.1 K, 12070 kPa, x1 = 0.0102 | 786
313.1 K, 12180 kPa, x1 = 0.0487 | 865
313.1 K, 12320 kPa, x1 = 0.1024 | 936
313.1 K, 12490 kPa, x1 = 0.0247 | 828
313.1 K, 12620 kPa, x1 = 0.1024 | 939
313.1 K, 12700 kPa, x1 = 0.0102 | 800
313.1 K, 12970 kPa, x1 = 0.1024 | 942
313.1 K, 13010 kPa, x1 = 0.0247 | 837
313.1 K, 13280 kPa, x1 = 0.1024 | 944
313.1 K, 13460 kPa, x1 = 0.0102 | 816
313.1 K, 13600 kPa, x1 = 0.0247 | 846
313.1 K, 13660 kPa, x1 = 0.1024 | 947
313.1 K, 14020 kPa, x1 = 0.1024 | 950
313.1 K, 14280 kPa, x1 = 0.0247 | 855
313.1 K, 14340 kPa, x1 = 0.0102 | 832
313.1 K, 14430 kPa, x1 = 0.1024 | 954
313.1 K, 14780 kPa, x1 = 0.1024 | 956
313.1 K, 14970 kPa, x1 = 0.0247 | 865
313.1 K, 15010 kPa, x1 = 0.0102 | 842
313.1 K, 15210 kPa, x1 = 0.1024 | 959
313.1 K, 15360 kPa, x1 = 0.0247 | 870
313.1 K, 15650 kPa, x1 = 0.1024 | 963
313.1 K, 15790 kPa, x1 = 0.0247 | 875
313.1 K, 16150 kPa, x1 = 0.1024 | 966
313.1 K, 16220 kPa, x1 = 0.0247 | 880
313.1 K, 16560 kPa, x1 = 0.1024 | 969
313.1 K, 16690 kPa, x1 = 0.0247 | 885
313.1 K, 17100 kPa, x1 = 0.1024 | 972
313.1 K, 17540 kPa, x1 = 0.1024 | 975
313.1 K, 18150 kPa, x1 = 0.1024 | 979
313.1 K, 18570 kPa, x1 = 0.1024 | 981
313.1 K, 18940 kPa, x1 = 0.1024 | 983
317.9 K, 9730 kPa, x1 = 0.0102 | 555
317.9 K, 9780 kPa, x1 = 0.0102 | 563
317.9 K, 9850 kPa, x1 = 0.0102 | 573
317.9 K, 9910 kPa, x1 = 0.0102 | 583
317.9 K, 9990 kPa, x1 = 0.0102 | 594
317.9 K, 10080 kPa, x1 = 0.0102 | 606
317.9 K, 10180 kPa, x1 = 0.0102 | 618
317.9 K, 10180 kPa, x1 = 0.0247 | 708
317.9 K, 10300 kPa, x1 = 0.0102 | 630
317.9 K, 10340 kPa, x1 = 0.0247 | 716
317.9 K, 10440 kPa, x1 = 0.0102 | 643
317.9 K, 10490 kPa, x1 = 0.0247 | 723
317.9 K, 10620 kPa, x1 = 0.0102 | 656
317.9 K, 10640 kPa, x1 = 0.0247 | 730
317.9 K, 10810 kPa, x1 = 0.0102 | 670
317.9 K, 10810 kPa, x1 = 0.0247 | 737
317.9 K, 11000 kPa, x1 = 0.0247 | 744
317.9 K, 11050 kPa, x1 = 0.0102 | 684
317.9 K, 11220 kPa, x1 = 0.0247 | 751
317.9 K, 11330 kPa, x1 = 0.0102 | 699
317.9 K, 11460 kPa, x1 = 0.0247 | 758
317.9 K, 11510 kPa, x1 = 0.0487 | 815
317.9 K, 11590 kPa, x1 = 0.0487 | 817
317.9 K, 11680 kPa, x1 = 0.0102 | 715
317.9 K, 11700 kPa, x1 = 0.0487 | 820
317.9 K, 11710 kPa, x1 = 0.0247 | 766
317.9 K, 11820 kPa, x1 = 0.0487 | 822
317.9 K, 11960 kPa, x1 = 0.0247 | 774
317.9 K, 11970 kPa, x1 = 0.0487 | 825
317.9 K, 12080 kPa, x1 = 0.0487 | 827
317.9 K, 12100 kPa, x1 = 0.0102 | 731
317.9 K, 12210 kPa, x1 = 0.0487 | 830
317.9 K, 12290 kPa, x1 = 0.0247 | 781
317.9 K, 12350 kPa, x1 = 0.0487 | 833
317.9 K, 12480 kPa, x1 = 0.0487 | 836
317.9 K, 12640 kPa, x1 = 0.0102 | 749
317.9 K, 12640 kPa, x1 = 0.0487 | 838
317.9 K, 12820 kPa, x1 = 0.0247 | 793
317.9 K, 12930 kPa, x1 = 0.0487 | 843
317.9 K, 13150 kPa, x1 = 0.1024 | 919
317.9 K, 13260 kPa, x1 = 0.0102 | 766
317.9 K, 13300 kPa, x1 = 0.0487 | 849
317.9 K, 13400 kPa, x1 = 0.1024 | 922
317.9 K, 13440 kPa, x1 = 0.0247 | 806
317.9 K, 13660 kPa, x1 = 0.0487 | 854
317.9 K, 13720 kPa, x1 = 0.1024 | 925
317.9 K, 13980 kPa, x1 = 0.1024 | 927
317.9 K, 14030 kPa, x1 = 0.0487 | 860
317.9 K, 14060 kPa, x1 = 0.0102 | 785
317.9 K, 14140 kPa, x1 = 0.0247 | 819
317.9 K, 14310 kPa, x1 = 0.1024 | 930
317.9 K, 14450 kPa, x1 = 0.0487 | 866
317.9 K, 14560 kPa, x1 = 0.1024 | 933
317.9 K, 14670 kPa, x1 = 0.0247 | 828
317.9 K, 14710 kPa, x1 = 0.1024 | 934
317.9 K, 14880 kPa, x1 = 0.1024 | 936
317.9 K, 15050 kPa, x1 = 0.0102 | 806
317.9 K, 15130 kPa, x1 = 0.1024 | 938
317.9 K, 15280 kPa, x1 = 0.0247 | 837
317.9 K, 15330 kPa, x1 = 0.1024 | 939
317.9 K, 15480 kPa, x1 = 0.1024 | 941
317.9 K, 15570 kPa, x1 = 0.0247 | 841
317.9 K, 15630 kPa, x1 = 0.1024 | 942
317.9 K, 15890 kPa, x1 = 0.0102 | 821
317.9 K, 15920 kPa, x1 = 0.0247 | 846
317.9 K, 15950 kPa, x1 = 0.1024 | 944
317.9 K, 16260 kPa, x1 = 0.0247 | 851
317.9 K, 16380 kPa, x1 = 0.1024 | 947
317.9 K, 16620 kPa, x1 = 0.0247 | 855
317.9 K, 16800 kPa, x1 = 0.1024 | 950
317.9 K, 16910 kPa, x1 = 0.0102 | 837
317.9 K, 17010 kPa, x1 = 0.0247 | 860
317.9 K, 17180 kPa, x1 = 0.1024 | 953
317.9 K, 17600 kPa, x1 = 0.1024 | 956
317.9 K, 18050 kPa, x1 = 0.1024 | 959
317.9 K, 18370 kPa, x1 = 0.1024 | 962
317.9 K, 18750 kPa, x1 = 0.1024 | 964
317.9 K, 18990 kPa, x1 = 0.1024 | 965
322.7 K, 10720 kPa, x1 = 0.0102 | 558
322.7 K, 10820 kPa, x1 = 0.0102 | 568
322.7 K, 10930 kPa, x1 = 0.0102 | 578
322.7 K, 11040 kPa, x1 = 0.0102 | 589
322.7 K, 11140 kPa, x1 = 0.0102 | 600
322.7 K, 11270 kPa, x1 = 0.0102 | 612
322.7 K, 11430 kPa, x1 = 0.0102 | 624
322.7 K, 11460 kPa, x1 = 0.0247 | 701
322.7 K, 11570 kPa, x1 = 0.0247 | 706
322.7 K, 11610 kPa, x1 = 0.0102 | 636
322.7 K, 11730 kPa, x1 = 0.0247 | 712
322.7 K, 11810 kPa, x1 = 0.0102 | 649
322.7 K, 11910 kPa, x1 = 0.0247 | 719
322.7 K, 12030 kPa, x1 = 0.0102 | 663
322.7 K, 12090 kPa, x1 = 0.0247 | 726
322.7 K, 12300 kPa, x1 = 0.0102 | 677
322.7 K, 12300 kPa, x1 = 0.0247 | 733
322.7 K, 12520 kPa, x1 = 0.0247 | 740
322.7 K, 12640 kPa, x1 = 0.0102 | 692
322.7 K, 12750 kPa, x1 = 0.0247 | 747
